Consider 2 compounds from patent publication US20230076515A1, “STIMULI THAT HYPERACTIVATE RESIDENT DENDRITIC CELLS FOR CANCER IMMUNOTHERAPY” (Children's Medical Center Corporation, priority 2019, published 2023).

Test [1] concerns T cells from skin draining lymph nodes. Description: In vivo OVA immunization and T cell re-stimulation. As to conditions: for antigen-specific tetramer+IFNγ+ T cell responses: 7 days post immunization with OVA, 7 days ex vivo re-stimulation with OVA-loaded BMDC. Set-up: species or system mouse. As to the method: Flow cytometry: After FcR blockade, 7 days BMDCs were resuspended in MACS buffer (PBS with 1% FCS and 2 mM EDTA), and stained with the following fluorescently conjugated antibodies (BioLegend): anti-CD11c (clone N418), anti-I-A/I-E (clone M5/114.15.2), anti-CD40 (clone 3/23), anti-CD80(16-10A1), anti-CD69 clone (H1.2F3), anti-H-2Kb (clone AF6-88.5). Single cell suspension from the tumor or draining inguinal lymph nodes, or skin inguinal adipose tissue were resuspended in MACS buffer (PBS with 1% FCS and 2 mM EDTA), and stained with the following fluorescently conjugated antibodies (BioLegend): anti-CD8α (clone 53-6.7), anti-CD4 (clone RM4-5), anti-CD44 (clone IM7), anti-CD62L (MEL-14), anti-CD3 (17A2), anti-CD103 (2E7), anti-CD69 clone (H1.2F3), anti-CD45 (A20 or 30F11). LIVE/DEAD™ Fixable Violet Dead Cell Stain Kit (Molecular probes) was used to determine the viability of cells, and cells were stained for 20 minutes in PBS at 4° C. Draining inguinal lymph nodes T cells were stained with OVA-peptide tetramers at room temperature for 1 h. PE-conjugated H2K(b) SIINFEKL (OVA 257-264; SEQ ID NO: 1) and APC conjugated I-A(b) AAHAEINEA (OVA 329-337; SEQ ID NO: 2) were used. I-A(b) and H2K(b) associated with CLIP peptides were used as isotype controls. Tetramers were purchased for NIH tetramer core facility. in some experiments, FITC anti-CD8.1 (clone Lyt-2.1 CD8-E1) purchased from accurate chemical was used with tetramers. To determine absolute number of cells, COUNTBRIGHT counting beads (Molecular probes) were used, following the manufacturer's protocol. Appropriate isotype controls were used as a staining control. Data were acquired on a BD FACS ARIA or BD Fortessa. Data were analyzed using FlowJo software.
Intracellular staining: For intracellular cytokine staining, cells were stimulated with 50 ng/ml phorbol 12-myristate 13-acetate (PMA) and 500 ng/ml ionomycin (Sigma-Aldrich) in the presence of GolgiStop (BD) and brefeldin A for 4-5 h. Cells were then washed twice with PBS, and stained with LIVE/DEAD™ Fixable violet or green Dead Cell Stain Kit (Molecular probes) in PBS for 20 min at 4° C. Cells were washed with MACS buffer, and stained for appropriate surface markers for 20 min at 4° C. After two washes, cells were fixed and permeabilized using BD Cytofix/Cytoperm kit for 20 min at 4° C., then washed with 1× perm wash buffer (BD) per manufacturer's protocol. Intracellular cytokine staining was performed in 1× perm buffer for 20-30 min at 4° C. with the following conjugated antibodies all purchased from BioLegend: anti-Ki67 (clone 16A8), anti-IFN-γ (clone XMG1.2), anti TNFα (clone MP6-XT22), anti-Gata3 (16E10A23), anti-IL4(11B11), anti-IL10 (clone JES5-16E3). Data were acquired on a BD FACS ARIA or BD Fortessa. Data were analyzed using FlowJo software.
In vivo immunization and T cell re-stimulation: Female C57BL/6J mice aged 8 weeks, were immunized subcutaneously (s.c.) on the left lower back with either 150 μg/mouse endotoxin-free OVA plus 10 μg/mouse LPS emulsified in incomplete Freund's adjuvant, or with 150 μg/mouse endotoxin-free OVA, plus 65 μg/mouse oxPAPC or PGPC, plus 10 μg/mouse LPS emulsified in incomplete Freund's adjuvant. In some experiments mice were injected s.c. with OVA alone or with LPS emulsified in Alum. 7 or 40 days after immunization, CD4^+ T cells and CD8^+ T cells were isolated from the draining lymph nodes of immunized mice by magnetic cell sorting with anti-CD4 beads or anti-CD8 beads and columns (Miltenyi Biotech). Enriched cells were then sorted as live CD45^+CD3^+CD4^+ cells or live CD45^+CD3^+CD8^+ using FACS ARIA. Purity post-sorting was >98%. Sorted cells were then seeded in 96-well plates at a concentration of 100.000 cells per well in the presence of 10-20×10^3 DC pulsed with serial dilutions of OVA, starting at 1 mg/ml. […]

The next test relates to FLT3-DCs. Put plainly: FLT3-DC stimulation, cytokine ELISA and LDH release. The class given is cell-based, mouse. As to conditions: ELISA. On the procedure: FIGS. 14A-B. Oxidized phospholipids induce hyperactive cDC1 and cDC2 cells that display a hypermigratory phenotype. (A) Wild-type or NLRP3^−/− or Casp1/11^−/− BMDCs generated using FLT3L were either left untreated (none) or treated with LPS alone, or Alum alone, or PGPC alone for 24 h, or BMDCs were primed for 3 h with LPS, then treated with indicated stimuli for 21 h. IL-1β and TNFα release was monitored by ELISA. The percentage of cell death was measured by LDH release in the cell supernatants. Means and SDs from three replicates are shown and data are representative of at least three independent experiments. (B) Wild-type BMDCs generated using FLT3L were sorted as cDC1 or cDC2 cells then treated with indicated stimuli as in A. IL-1β and TNFα release was monitored by ELISA. The percentage of cell death was measured by LDH release in the cell supernatants. Means and SDs from three independent experiments done in two different laboratories.
Virtually all studies assessing the state of cell-hyperactivation have focused on the ability of bone marrow derived DC (BMDCs), generated with the cytokine granulocyte-macrophage colony-stimulating factor (GM-CSF), to release IL-1β while retaining viability. […] To examine whether conventional DCs can achieve a hyperactivation state, we used BMDCs generated using the DC hematopoietin Fms-like tyrosine kinase 3 ligand (Flt3L). […]
(In general: An ELISA detects its analyte on a solid surface through an enzyme-linked reagent.)

A further test relates to OT-II naïve CD4+ T cells. Description: OT-II in vitro T-cell stimulation. The class given is cell-based, mouse. As to conditions: OVA-loaded BMDCs co-cultured with OT-II T cells; ELISA. On the procedure: OT-I and OT-II in vitro T-cell stimulation: Splenic CD8^+ and CD4^+ T cells were sorted from OT-I and OT-II mice by magnetic cell sorting with anti-CD8 beads or anti-CD4 beads respectively (Miltenyi Biotech). Sorted T cells were then seeded in 96-well plates at a concentration of 100.000 cells per well in the presence of either 20.000 or 10.000 DCs (5:1 or 10:1 ratio) that were pretreated with either LPS (activation stimuli) or LPS+PGPC (hyperactivation stimuli) or LPS+Alum (pyroptotic stimuli) and pulsed (or not) with OVA protein or SIINFEKL (SEQ ID NO: 1) peptide at 100 μg/ml for 2 hours. 5 days post culture, supernatants were collected and clarified by centrifugation for short-term storage at −20° C. and cytokine measurement by ELISA.
Intracellular staining: For intracellular cytokine staining, cells were stimulated with 50 ng/ml phorbol 12-myristate 13-acetate (PMA) and 500 ng/ml ionomycin (Sigma-Aldrich) in the presence of GolgiStop (BD) and brefeldin A for 4-5 h. Cells were then washed twice with PBS, and stained with LIVE/DEAD™ Fixable violet or green Dead Cell Stain Kit (Molecular probes) in PBS for 20 min at 4° C. Cells were washed with MACS buffer, and stained for appropriate surface markers for 20 min at 4° C. […] Data were analyzed using FlowJo software.

In a further test the test system is BMDCs. Put plainly: BMDC stimulation, cytokine ELISA and LDH release. It is filed as cell-based, mouse. As to conditions: LPS alone or LPS priming 3 h then stimuli 21 h, ELISA. As to the method: Cell culture: BMDCs were generated by differentiating bone marrow in IMDM (Gibco), 10% B16-GM-CSF derived supernatant, 2 μM 2-mercaptoethanol, 100 U/ml penicillin, 100 μg/ml streptomycin (Sigma-Aldrich) and 10% FBS. 6 day after culture, BMDCs were washed with PBS and re-plated in IMDM with 10% FBS at a concentration of 1×10^6 cells/ml in a final volume of 100 μl. CD11c^+ DC purity was assessed by flow cytometry using BD Fortessa and was routinely above 80%. Splenic DCs from mice injected with B16-FLT3 for 15 days, were purified as CD11c^+MHC^+ live cells, then plated at a concentration of 1×10^6 cells/ml in a final volume of 100 μl in complete IMDM. To induce hyperactive or pyroptotic BMDCs, DCs were primed with LPS (1 μg/ml) for 3 hours, then stimulated with OxPAPC or PGPC (100 μg/ml) or alum (100 μg/ml) for 21 h in complete IMDM. […]
LDH Assay and ELISAs: Fresh supernatants were clarified by centrifugation after BMDC stimulation, then assayed for LDH release assay using the Pierce LDH cytotoxicity colorimetric assay kit (Life Technologies) following the manufacturer's protocol. Measurements for absorbance readings were performed on a Tecan plate reader at wavelengths of 490 nm and 680 nm. […] ELISA for IL-1β, TNFα, IL-10, IL-12p70, IFNγ, IL-2, IL-13, IL-4 and IL-17 were performed using eBioscience Ready-SET-Go! […]

The mark [2] stands for this setting: OVA immunization, 40 days post-immunization, ex vivo re-stimulation with OVA-loaded BMDCs.

In the case of `CCCCCCCCCCCCCCCC(=O)OC[C@H](COP(=O)([O-])OCC[N+](C)(C)C)OC(=O)CCCC(=O)O` [PGPC, [(2R)-2-(4-carboxybutanoyloxy)-3-hexadecanoyloxypropyl] 2-(trimethylazaniumyl)ethyl phosphate], the “antigen-specific tetramer+IFNγ+ T cell responses” value in test [1] was “highest frequency of tetramer+IFNγ+ responses”. Besides, the “effector and memory T cell generation” value in test [1] (OVA plus LPS plus lipid, in IFA) is “enhance the magnitude of effector and memory T cell generation”.

For lipopolysaccharide [LPS], the IL-1β release entry is “did not induce IL-1β release from DCs” with FLT3-DCs and “did not induce the release of IL-1β” in the test on BMDCs. Further, the “release of IL-10 and IL-13 (TH2-associated cytokines)” value in the test on OT-II naïve CD4+ T cells was “large amounts of IL-10, and IL-13”. Moreover, the “antigen-specific tetramer+IFNγ+ T cell responses” value in test [1] was “higher IFNγ effector function”. Besides, the “T central memory cells (TCM) in dLN” value in test [1] (40 days post-immunization with OVA) is “less abundant”. The “IFNγ production by re-stimulated T cells” value in test [1] (setting [2]) is “producing IFNγ, IL-10, IL-4 and IL-13”. The “IL-10, IL-4 and IL-13 production by re-stimulated T cells” value in test [1] (setting [2]) is “producing IFNγ, IL-10, IL-4 and IL-13”.
